Measured values reported in patent US10449181B2, “Treatment of autism and autism spectrum disorders (ASD)” (priority 2016, dated 2019).
“Also recorded” adds a separate entry of the source.

How the values were obtained:
autistic children = details: eight week trial, 25 autistic children, unpublished data, not placebo-controlled; cited from earlier work
[1] = test system: subject with Autism Spectrum Disorder; assay: Oral zolpidem dosing regimen in a subject with ASD; format: in vivo, human
From the text: Thus, classic BZs and zolpidem are likely to have different requirements for high-affinity binding to GABAA receptors (Sancar et al. 2007). […] Studies have shown that the sedative-hypnotic and anticonvulsant activities of zolpidem are due to its action on α1-GABAA receptors and not on α2- or α3-GABAA receptors (Crestani F et al., 2000).
Especially, the relief of the so-called “psychic pain” or “phantom pain” which was by far the most debilitating symptom of ASD with respect to the subject, was profound after the first dose.

α1-GABAA receptors = α1-GABAA receptors (Homo sapiens, UniProt P14867+P18507); details: recombinant receptors; cited from earlier work
α2-GABAA receptors = α2-GABAA receptors (Homo sapiens, UniProt P18507+P47869); details: recombinant receptors; cited from earlier work
α3-GABAA receptors = α3-GABAA receptors (Homo sapiens, UniProt P18507+P34903); details: recombinant receptors; cited from earlier work
α5-GABAA receptors = molecular target: T1, α5-GABAA receptors (Homo sapiens, UniProt P31644); details: recombinant receptors; cited from earlier work
T1 sequence (P31644 32-462): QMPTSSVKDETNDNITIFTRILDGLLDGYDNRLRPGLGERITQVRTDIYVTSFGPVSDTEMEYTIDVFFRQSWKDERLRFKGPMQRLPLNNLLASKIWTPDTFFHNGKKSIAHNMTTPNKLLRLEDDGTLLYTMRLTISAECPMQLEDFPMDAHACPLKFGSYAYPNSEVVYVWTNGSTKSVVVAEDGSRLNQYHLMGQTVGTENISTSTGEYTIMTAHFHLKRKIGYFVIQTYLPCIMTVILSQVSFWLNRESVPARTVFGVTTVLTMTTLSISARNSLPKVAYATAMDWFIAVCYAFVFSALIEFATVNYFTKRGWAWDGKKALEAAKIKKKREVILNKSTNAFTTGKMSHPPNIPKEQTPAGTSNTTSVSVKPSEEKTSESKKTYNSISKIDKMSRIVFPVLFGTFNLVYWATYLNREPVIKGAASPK

α1β3 GABAA receptors = molecular target: T2, α1β3 GABAA receptors (Homo sapiens, UniProt P14867); details: cited from earlier work
T2 sequence (P14867 28-456): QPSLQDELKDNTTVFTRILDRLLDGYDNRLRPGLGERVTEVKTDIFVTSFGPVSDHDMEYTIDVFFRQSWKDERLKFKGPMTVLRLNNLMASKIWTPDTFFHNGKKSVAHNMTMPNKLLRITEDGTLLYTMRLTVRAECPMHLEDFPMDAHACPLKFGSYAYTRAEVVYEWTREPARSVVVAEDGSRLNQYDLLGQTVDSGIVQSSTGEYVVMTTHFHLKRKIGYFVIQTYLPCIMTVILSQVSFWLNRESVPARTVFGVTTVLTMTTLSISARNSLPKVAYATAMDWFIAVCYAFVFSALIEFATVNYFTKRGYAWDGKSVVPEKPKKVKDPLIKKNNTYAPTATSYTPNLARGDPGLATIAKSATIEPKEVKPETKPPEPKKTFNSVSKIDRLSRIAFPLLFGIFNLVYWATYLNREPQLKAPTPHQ
T2 sequence (P28472 26-473 partner): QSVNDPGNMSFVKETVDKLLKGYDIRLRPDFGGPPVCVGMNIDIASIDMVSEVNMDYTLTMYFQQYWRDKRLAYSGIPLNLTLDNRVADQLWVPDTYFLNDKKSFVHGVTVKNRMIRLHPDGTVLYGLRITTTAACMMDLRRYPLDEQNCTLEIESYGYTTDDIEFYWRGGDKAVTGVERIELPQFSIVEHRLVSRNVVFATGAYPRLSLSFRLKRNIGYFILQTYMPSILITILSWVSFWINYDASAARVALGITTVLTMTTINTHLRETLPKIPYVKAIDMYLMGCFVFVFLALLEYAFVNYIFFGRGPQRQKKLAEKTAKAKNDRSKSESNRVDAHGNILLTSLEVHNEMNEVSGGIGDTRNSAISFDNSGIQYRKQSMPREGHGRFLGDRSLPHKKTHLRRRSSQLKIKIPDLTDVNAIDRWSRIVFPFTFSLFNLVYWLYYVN

α2-GABAA receptors, sequence (P47869 29-451, one chain of several): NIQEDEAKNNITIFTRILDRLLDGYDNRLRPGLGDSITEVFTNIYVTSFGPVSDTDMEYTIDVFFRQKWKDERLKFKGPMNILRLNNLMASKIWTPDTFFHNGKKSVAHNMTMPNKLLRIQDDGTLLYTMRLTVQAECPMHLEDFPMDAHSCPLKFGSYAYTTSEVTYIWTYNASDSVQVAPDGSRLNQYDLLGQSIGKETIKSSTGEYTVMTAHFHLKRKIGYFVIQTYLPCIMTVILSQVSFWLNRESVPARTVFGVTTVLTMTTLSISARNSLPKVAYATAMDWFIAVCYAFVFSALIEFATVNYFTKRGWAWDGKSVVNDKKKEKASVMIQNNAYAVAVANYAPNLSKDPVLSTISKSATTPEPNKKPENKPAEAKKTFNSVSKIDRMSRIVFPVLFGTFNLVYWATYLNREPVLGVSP
α2-GABAA receptors, sequence (P18507 40-475, one chain of several): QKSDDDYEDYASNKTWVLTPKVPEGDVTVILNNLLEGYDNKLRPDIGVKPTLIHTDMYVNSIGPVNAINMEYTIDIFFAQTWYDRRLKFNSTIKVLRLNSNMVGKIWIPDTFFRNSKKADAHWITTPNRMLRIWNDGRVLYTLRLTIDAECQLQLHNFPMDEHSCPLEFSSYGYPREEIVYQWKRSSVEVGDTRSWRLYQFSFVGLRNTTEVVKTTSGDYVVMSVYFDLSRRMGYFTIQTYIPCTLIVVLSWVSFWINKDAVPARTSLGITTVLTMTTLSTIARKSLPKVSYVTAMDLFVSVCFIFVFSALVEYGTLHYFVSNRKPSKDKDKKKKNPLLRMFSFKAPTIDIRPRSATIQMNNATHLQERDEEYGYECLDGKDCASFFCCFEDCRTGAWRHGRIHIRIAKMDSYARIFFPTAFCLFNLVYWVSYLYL
α3-GABAA receptors, sequence (P34903 29-492, one chain of several): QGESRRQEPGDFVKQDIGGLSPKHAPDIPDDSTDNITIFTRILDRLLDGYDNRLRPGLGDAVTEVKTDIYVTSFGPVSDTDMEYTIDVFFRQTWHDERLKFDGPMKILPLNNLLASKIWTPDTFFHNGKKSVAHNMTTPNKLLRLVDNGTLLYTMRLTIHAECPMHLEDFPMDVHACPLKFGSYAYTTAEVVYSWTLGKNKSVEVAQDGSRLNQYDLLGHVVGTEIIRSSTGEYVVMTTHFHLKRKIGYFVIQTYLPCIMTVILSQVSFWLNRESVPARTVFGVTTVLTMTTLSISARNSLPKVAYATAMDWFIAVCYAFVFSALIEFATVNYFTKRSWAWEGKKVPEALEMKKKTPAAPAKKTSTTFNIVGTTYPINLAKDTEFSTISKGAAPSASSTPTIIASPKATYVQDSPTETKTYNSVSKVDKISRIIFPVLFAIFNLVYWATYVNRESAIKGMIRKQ
α3-GABAA receptors, sequence (P18507 40-475, one chain of several): as the sequence (P18507 40-475, one chain of several) above
α1-GABAA receptors, sequence (P18507 40-475, one chain of several): as above

In the case of `NC[C@H](CC(=O)O)c1ccc(Cl)cc1` [Arbaclofen], the “measures of irritability and communications” value (autistic children) is listed as “significant improvements”.
In the case of `Cc1ccc(-c2nc3ccc(C)cn3c2CC(=O)N(C)C)cc1` [zolpidem], the “relief of the so-called psychic pain or phantom pain” value ([1]; after the first dose, one subject) is reported as “profound”, the “attenuation of at least one indicium of an ASD” value ([1]; oral, at least 30 mg every 3.5 hours around the clock, at least one subject) is reported as “almost complete attenuation; also recorded: immediate and almost complete” and the “duration of symptom-free state while on zolpidem” value ([1]; oral, at least 30 mg every 3.5 hours around the clock, one subject) is reported as “symptom-free and leading a normal life for at least five years”. For the same compound, the “affinity to α1-GABAA receptors” value (α1-GABAA receptors) was “high affinity”, the “affinity to α2-GABAA receptors” value (α2-GABAA receptors) was “intermediate affinity” and the “affinity to α3-GABAA receptors” value (α3-GABAA receptors) was “intermediate affinity”. The “binding to α5-GABAA receptors” value (α5-GABAA receptors) was “fails to bind” and the “modulation of α1β3 GABAA receptors” value (α1β3 GABAA receptors) was “potent stoichiometry-selective modulator”.
